In patent US4393225A, “AI-77 Compounds and pharmaceutically acceptable salts thereof” (Asahi Kasei Kogyo Kabushiki Kaisha, priority 1979, dated 1983):
Where two headings read alike, the source gives them in different places.

Test system: ulcer
Test: Anti-ulcer test (restraint and water immersion ulcer in rats, i.p.)
Type: in vivo, Male Wistar rats
Settings: Rattus norvegicus, ip, read-out: % Inhibition of Ulcer
Procedure, shortened: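 Compound given intraperitoneally in saline to 24 h-fasted male Wistar rats about 150 g, followed after one hour by 6 h restraint with water immersion at 21 °C. Gastric lesions graded 0, 0.5, 1, 2 or 3 on microscopic inspection and converted to percent ulcer inhibition.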

Compound: CCOc1cccc2c1C(=O)OC(C(CC(C)C)NC(=O)C(OC(C)=O)C(O)C(CC(N)=O)NC)C2 (stereo not shown) [VII-24-1]
- inhibition in vivo at 25 mg/kg (25 mg/kg i.p.): 66%

Compound: CCOc1cccc2c1C(=O)OC(C(CC(C)C)NC(=O)C(OC(=O)C(C)C)C(O)C(CC(N)=O)NC)C2 (stereo not shown) [VII-24-2]
- inhibition in vivo at 25 mg/kg (25 mg/kg i.p.): 66%

Compound: CCCCOC(C(=O)NC(CC(C)C)C1Cc2cccc(OC)c2C(=O)O1)C(O)C(CC(N)=O)NC (stereo not shown) [VII-25-1]
- inhibition in vivo at 25 mg/kg (25 mg/kg i.p.): 66%

Compound: CCCCOc1cccc2c1C(=O)OC(C(CC(C)C)NC(=O)C(OCCCC)C(O)C(CC(N)=O)NC)C2 (stereo not shown) [VII-25-3]
- inhibition in vivo at 25 mg/kg (25 mg/kg i.p.): 56%

Compound: CNC(CC(N)=O)C(O)C(OC)C(=O)NC(CC(C)C)C1Cc2cccc(O)c2C(=O)O1 (stereo not shown) [VII-26-1]
- inhibition in vivo at 25 mg/kg (25 mg/kg i.p.): 89%

Compound: CNC(CC(N)=O)C(O)C(OC)C(=O)NC(CC(C)C)C1Cc2cccc(OC(C)=O)c2C(=O)O1 (stereo not shown) [VII-27-1]
- inhibition in vivo at 25 mg/kg (25 mg/kg i.p.): 66%

Compound: CC(=O)NC(CC(N)=O)C(O)C(O)C(=O)NC(CC(C)C)C1Cc2cccc(O)c2C(=O)O1 (stereo not shown) [VII-28-1]
- inhibition in vivo at 25 mg/kg (25 mg/kg i.p.): 78%

Compound: CC(C)CC(NC(=O)C(O)C(O)C(CC(N)=O)NC(=O)C(C)C)C1Cc2cccc(O)c2C(=O)O1 (stereo not shown) [VII-28-2]
- inhibition in vivo at 25 mg/kg: 78%

Compound: CCCCCCCC(=O)NC(CC(N)=O)C(O)C(O)C(=O)NC(CC(C)C)C1Cc2cccc(O)c2C(=O)O1 (stereo not shown) [VII-28-3]
- inhibition in vivo at 25 mg/kg (25 mg/kg i.p.): 66%

Compound: CCCCCCCCCCCCCCCCCC(=O)NC(CC(=O)NCC)C(O)C(O)C(=O)NC(CC(C)C)C1Cc2cccc(O)c2C(=O)O1 (stereo not shown) [VII-28-4]
- inhibition in vivo at 25 mg/kg (25 mg/kg i.p.): 66%

Compound: CCC(=O)OC(C(=O)NC(CC(C)C)C1Cc2cccc(O)c2C(=O)O1)C(O)C(CC(=O)NC)NC(C)=O (stereo not shown) [VII-29-1]
- inhibition in vivo at 25 mg/kg: 66%

Compound: CC(=O)NC(CC(N)=O)C(O)C(O)C(=O)NC(CC(C)C)C1Cc2cccc(OC(C)=O)c2C(=O)O1 (stereo not shown) [VII-31-1]
- inhibition in vivo at 25 mg/kg (25 mg/kg i.p.): 89%

Compound: CCCCOc1cccc2c1C(=O)OC(C(CC(C)C)NC(=O)C(O)C(O)C(CC(=O)NCC)NC(C)=O)C2 (stereo not shown) [VII-32-1]
- inhibition in vivo at 25 mg/kg (25 mg/kg i.p.): 66%

Compound: CCC(=O)OC(C(=O)NC(CC(C)C)C1Cc2cccc(OC)c2C(=O)O1)C(O)C(CC(N)=O)NC(C)=O (stereo not shown) [VII-33-1]
- inhibition in vivo at 25 mg/kg (25 mg/kg i.p.): 66%

Compound: CCCCOc1cccc2c1C(=O)OC(C(CC(C)C)NC(=O)C(OC)C(O)C(CC(N)=O)NC(C)=O)C2 (stereo not shown) [VII-34-1]
- inhibition in vivo at 25 mg/kg (25 mg/kg i.p.): 66%

Compound: CCNC(=O)CC(NC(C)=O)C(O)C(OC)C(=O)NC(CC(C)C)C1Cc2cccc(O)c2C(=O)O1 (stereo not shown) [VII-35-1]
- inhibition in vivo at 25 mg/kg (25 mg/kg i.p.): 66%

Compound: COC(C(=O)NC(CC(C)C)C1Cc2cccc(OC(=O)C(C)C)c2C(=O)O1)C(O)C(CC(N)=O)NC(C)=O (stereo not shown) [VII-36-1]
- inhibition in vivo at 25 mg/kg (25 mg/kg i.p.): 66%

Compound: CNC(=O)C=CC(O)C(O)C(=O)NC(CC(C)C)C1Cc2cccc(O)c2C(=O)O1 (stereo not shown) [VIII-1-1]
- inhibition in vivo at 50 mg/kg (50 mg/kg i.p.): 56%

Compound: CCCCCNC(=O)C=CC(O)C(O)C(=O)NC(CC(C)C)C1Cc2cccc(O)c2C(=O)O1 (stereo not shown) [VIII-1-2]
- inhibition in vivo at 50 mg/kg (50 mg/kg i.p.): 56%

Compound: CCCCCCCCCCCCCCCCCCNC(=O)C=CC(O)C(O)C(=O)NC(CC(C)C)C1Cc2cccc(O)c2C(=O)O1 (stereo not shown) [VIII-1-3]
- inhibition in vivo at 50 mg/kg (50 mg/kg i.p.): 44%

Compound: CC(C)CC(NC(=O)C(O)C(O)C=CC(=O)NCc1cccc(Cl)c1)C1Cc2cccc(O)c2C(=O)O1 (stereo not shown) [VIII-1-4]
- inhibition in vivo at 50 mg/kg (50 mg/kg i.p.): 44%

Compound: CC(C)CC(NC(=O)C(O)C(O)C=CC(=O)NCC1CCCCC1)C1Cc2cccc(O)c2C(=O)O1 (stereo not shown) [VIII-1-5]
- inhibition in vivo at 50 mg/kg (50 mg/kg i.p.): 44%

Compound: CCCC=Cc1ccc(CN=C(NC(CC(C)C)C2Cc3cccc(O)c3C(=O)O2)C(O)C(O)C(N)CC(=O)O)cc1 (stereo not shown) [Vb-1-40]
- inhibition in vivo at 50 mg/kg (50 mg/kg i.p.): 89%

Compound: CC(C)CC(NC(=NC(C)C)C(O)C(O)C(N)CC(=O)O)C1Cc2cccc(O)c2C(=O)O1 (stereo not shown) [Vb-1-41]
- inhibition in vivo at 50 mg/kg: 89%

Compound: Cc1ccc(N=C(NC(CC(C)C)C2Cc3cccc(O)c3C(=O)O2)C(O)C(O)C(N)CC(=O)O)cc1 (stereo not shown) [Vb-1-42]
- inhibition in vivo at 50 mg/kg (50 mg/kg i.p.): 83%

Compound: CCN1CCCC(N=C(NC(CC(C)C)C2Cc3cccc(O)c3C(=O)O2)C(O)C(O)C(N)CC(=O)O)C1 (stereo not shown) [Vb-1-43]
- inhibition in vivo at 50 mg/kg (50 mg/kg i.p.): 83%

Compound: CC(C)CC(NC(=NCCN1CCOCC1)C(O)C(O)C(N)CC(=O)O)C1Cc2cccc(O)c2C(=O)O1 (stereo not shown) [Vb-1-44]
- inhibition in vivo at 50 mg/kg (50 mg/kg i.p.): 94%

Compound: CC(C)CC(NC(=NCCN1CCCCC1)C(O)C(O)C(N)CC(=O)O)C1Cc2cccc(O)c2C(=O)O1 (stereo not shown) [Vb-1-45]
- inhibition in vivo at 50 mg/kg (50 mg/kg i.p.): 94%

Compound: CCC(=O)OC(C(=N)NC(CC(C)C)C1Cc2cccc(O)c2C(=O)O1)C(O)C(N)CC(=O)O (stereo not shown) [Vb-2-1]
- inhibition in vivo at 50 mg/kg (50 mg/kg i.p.): 66%

Compound: CC(C)CC(NC(=N)C(OC(=O)CCC1CCCC1)C(O)C(N)CC(=O)O)C1Cc2cccc(O)c2C(=O)O1 (stereo not shown) [Vb-2-2]
- inhibition in vivo at 50 mg/kg (50 mg/kg i.p.): 56%

Compound: C/C=C/C(=O)OC(C(=N)NC(CC(C)C)C1Cc2cccc(O)c2C(=O)O1)C(O)C(N)CC(=O)O (stereo not shown) [Vb-2-3]
- inhibition in vivo at 50 mg/kg (50 mg/kg i.p.): 66%

Compound: CC(=O)Oc1cccc2c1C(=O)OC(C(CC(C)C)NC(=N)C(OC(=O)C(C)C)C(O)C(N)CC(=O)O)C2 (stereo not shown) [Vb-3-1]
- inhibition in vivo at 50 mg/kg (50 mg/kg i.p.): 56%

Compound: CC(C)CC(NC(=N)C(O)C(O)C(N)CC(=O)O)C1Cc2cccc(OC(=O)C(C)C)c2C(=O)O1 (stereo not shown) [Vb-4-1]
- inhibition in vivo at 50 mg/kg (50 mg/kg i.p.): 78%

Compound: CCCCCCCCCCCCCCCCCC(=O)Oc1cccc2c1C(=O)OC(C(CC(C)C)NC(=N)C(O)C(O)C(N)CC(=O)O)C2 (stereo not shown) [Vb-4-2]
- inhibition in vivo at 50 mg/kg (50 mg/kg i.p.): 56%
